Measured values published in paper PMC9256669, “Monomethyl auristatin antibody and peptide drug conjugates for trimodal cancer chemo-radio-immunotherapy” (Nature Communications, 2022).

Test: Pilot dose studies of CDX3379-MMAE ADC (response to reviewers)
Type: in vivo
Description: compares to MMAE in immune-competent cancer models. We have now tested the hypothesis raised by the Reviewer head on and present new data (Fig. 3h). First, we successfully synthesized a CDX3379-MMAF ADC (Supplementary Figs. 2c & 2d). Then, we tested CDX3379-MMAE + IR to […] directly in B16 […]
these findings, we hypothesize that MMAE mediated bystander effects improve radiosensitized tumor control when compared to MMAF tumor cell radiosensitization and continue with MMAE as our lead radiosensitizing […]
Comment 2: “authors claim that in syngeneic model MMAE lacked therapeutic efficacy irrespective of the coupled tumor-directed delivery vehicle. However, comparison here is misleading, as they compare MMAE activity coupled to an antibody vs a penetrating peptide. Instead, in order to fully address the concept that auristatin MMAE has limited antitumor activity in a syngeneic model a more appropriate control should be used, that is a MMAE coupled to a different mAb targeting other antigen (receptor). In addition, this would reinforce the evidence about the potential of ADC therapy in combination with IR in immunocompetent mouse […]
Response: In principle, we agree with the sentiment raised by the Reviewer to have another ADC targeting a different cell surface receptor. […]

In the case of “CDX3379-MMAE: anti-HER3 antibody CDX3379 with 4 MMAE per antibody via MC-VC-PABC linker, labeled with Cy5”, the “anti-tumor activity in pilot studies” value (1 nmole CDX3379-MMAE) is reported as “ineffective” and the “anti-tumor activity in pilot studies” value (5 nmoles CDX3379-MMAE) is reported as “anti-tumor activity”.
